Data taken from PubChem BioAssay (NCI).
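Five concentrations, 48 hours, 96-well plates. Definition used: TGI = concentration required for complete inhibition of growth.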

What was measured:
Experiment in all cases: DTP human tumour cell line panel, 48 h
[1] = system: T-47D breast
[2] = system: OVCAR-3 ovarian
[3] = system: SK-MEL-5 melanoma
[4] = system: LOX IMVI melanoma
[5] = system: SNB-75 CNS
[6] = system: NCI-H460 lung
[7] = system: COLO 205 colon
[8] = system: HCC-2998 colon
[9] = system: PC-3 prostate
[10] = system: M14 melanoma
[11] = system: NCI-H23 lung
[12] = system: MALME-3M melanoma
[13] = system: ACHN renal
[14] = system: SK-MEL-28 melanoma
[15] = system: HT29 colon
[16] = system: TK-10 renal
[17] = system: KM12 colon
[18] = system: A498 renal
[19] = system: HOP-92 NSCLC
[20] = system: SF-268 CNS
[21] = system: SF-295 CNS
[22] = system: U251 CNS
[23] = system: MDA-MB-435
[24] = system: MDA-MB-231 breast
[25] = system: UACC-257 melanoma
[26] = system: MDA-N
[27] = system: EKVX NSCLC
[28] = system: DU-145 prostate
[29] = system: UO-31 renal
[30] = system: HS 578T breast
[31] = system: HCT-116 colon
[32] = system: NCI-H522 lung
[33] = system: 786-0 renal
[34] = system: OVCAR-5 ovarian
[35] = system: RXF 393 renal
[36] = system: A549 NSCLC
[37] = system: HOP-62 NSCLC
[38] = system: SK-OV-3 ovarian
[39] = system: MCF7 breast
[40] = system: SW-620 colon
[41] = system: IGROV1 ovarian
[42] = system: SK-MEL-2 melanoma
[43] = system: SR leukemia
[44] = system: OVCAR-8 ovarian
[45] = system: UACC-62 melanoma
[46] = system: RPMI-8226 leukemia
[47] = system: CCRF-CEM leukemia
[48] = system: SNB-19 CNS
[49] = system: SN12C renal
[50] = system: MOLT-4 leukemia
[51] = system: SF-539 CNS
[52] = system: CAKI-1 renal
[53] = system: NCI/ADR-RES ovarian
[54] = system: HCT-15 colon
[55] = system: NCI-H226 lung
[56] = system: BT-549 breast
[57] = system: OVCAR-4 ovarian
[58] = system: HL-60(TB) leukemia
[59] = system: K-562 leukemia

## O=c1c2ccccc2nc(-c2cccc([N+](=O)[O-])c2)n1O
[1]
  TGI: > 100 µM
[2]
  TGI: > 94.3 µM
[3]
  TGI: > 100 µM
[4]
  TGI: > 100 µM
[5]
  TGI: > 100 µM
[6]
  TGI: > 100 µM
[7]
  TGI: > 100 µM
[8]
  TGI: > 100 µM
[9]
  TGI: 98.7 µM
[10]
  TGI: > 100 µM
[11]
  TGI: > 100 µM
[12]
  TGI: > 100 µM
[13]
  TGI: > 100 µM
[14]
  TGI: > 100 µM
[15]
  TGI: > 100 µM
[16]
  TGI: > 100 µM
[17]
  TGI: > 100 µM
[18]
  TGI: > 85.1 µM
[19]
  TGI: > 75.1 µM
[20]
  TGI: > 100 µM
[21]
  TGI: > 100 µM
[22]
  TGI: > 100 µM
[23]
  TGI: > 100 µM
[24]
  TGI: > 100 µM
[25]
  TGI: > 100 µM
[26]
  TGI: > 100 µM
[27]
  TGI: > 100 µM
[28]
  TGI: > 100 µM
[29]
  TGI: > 100 µM
[30]
  TGI: > 100 µM
[31]
  TGI: > 100 µM
[32]
  TGI: > 88.8 µM
[33]
  TGI: > 100 µM
[34]
  TGI: > 100 µM
[35]
  TGI: > 100 µM
[36]
  TGI: > 100 µM
[37]
  TGI: > 100 µM
[38]
  TGI: > 100 µM
[39]
  TGI: > 100 µM
[40]
  TGI: > 100 µM
[41]
  TGI: > 100 µM
[42]
  TGI: 91.1 µM
[43]
  TGI: > 100 µM
[44]
  TGI: 63.9 µM
[45]
  TGI: > 100 µM
[46]
  TGI: > 33.7 µM
[47]
  TGI: > 38.2 µM
[48]
  TGI: > 100 µM
[49]
  TGI: > 100 µM
[50]
  TGI: > 100 µM
[51]
  TGI: > 100 µM
[52]
  TGI: > 100 µM
[53]
  TGI: > 87.4 µM
[54]
  TGI: > 100 µM
[55]
  TGI: > 100 µM
[56]
  TGI: 80.8 µM
[57]
  TGI: > 100 µM

## Cc1cn([C@@H]2O[C@H](CO[Si](C)(C)C(C)(C)C)[C@]3(O[C@H]3C(=O)NO)[C@H]2O[Si](C)(C)C(C)(C)C)c(=O)[nH]c1=O
[1]
  TGI: 4.07 µM
[2]
  TGI: 3.49 µM
[3]
  TGI: 3.58 µM
[4]
  TGI: 3.1 µM
[5]
  TGI: 3.71 µM
[6]
  TGI: 3.15 µM
[8]
  TGI: 2.97 µM
[9]
  TGI: 5.66 µM
[10]
  TGI: 3.56 µM
[11]
  TGI: 3.66 µM
[12]
  TGI: 5.07 µM
[13]
  TGI: 3.06 µM
[14]
  TGI: 3.33 µM
[15]
  TGI: 2.92 µM
[16]
  TGI: 5.35 µM
[17]
  TGI: 3.71 µM
[18]
  TGI: 3.33 µM
[19]
  TGI: 4.17 µM
[20]
  TGI: 2.97 µM
[21]
  TGI: 3.4 µM
[22]
  TGI: 3.07 µM
[58]
  TGI: 3.57 µM
[23]
  TGI: 4.38 µM
[24]
  TGI: 4.19 µM
[25]
  TGI: 6.92 µM
[26]
  TGI: 3.01 µM
[27]
  TGI: 3.59 µM
[28]
  TGI: 3.67 µM
[29]
  TGI: 3.28 µM
[30]
  TGI: 4.23 µM
[31]
  TGI: 2.85 µM
[32]
  TGI: 3.12 µM
[33]
  TGI: 2.87 µM
[34]
  TGI: 3.33 µM
[35]
  TGI: 3.34 µM
[36]
  TGI: 3.63 µM
[37]
  TGI: 3.52 µM
[38]
  TGI: 3.66 µM
[39]
  TGI: 3.15 µM
[59]
  TGI: 6.48 µM
[40]
  TGI: 4.28 µM
[41]
  TGI: 3.19 µM
[42]
  TGI: 3.9 µM
[44]
  TGI: 3.53 µM
[45]
  TGI: 3.38 µM
[46]
  TGI: 2.84 µM
[47]
  TGI: 2.76 µM
[48]
  TGI: 3.18 µM
[49]
  TGI: 3.08 µM
[50]
  TGI: 4.62 µM
[51]
  TGI: 2.83 µM
[52]
  TGI: 4.31 µM
[53]
  TGI: 18.5 µM
[54]
  TGI: 3.62 µM
[55]
  TGI: 3.69 µM
[56]
  TGI: 3.29 µM
[57]
  TGI: 3.77 µM

## CCCN(CCC)C(=S)Sc1nc(C)nc(N2CCN(c3nc(C)nc(SC(=S)N(CCC)CCC)c3[N+](=O)[O-])CC2)c1[N+](=O)[O-]
[1]
  TGI: 39.9 µM
[3]
  TGI: 28.2 µM
[4]
  TGI: 2.27 µM
[5]
  TGI: > 100 µM
[6]
  TGI: > 100 µM
[7]
  TGI: 19 µM
[8]
  TGI: 43.6 µM
[9]
  TGI: 53.4 µM
[10]
  TGI: 60.9 µM
[11]
  TGI: 36.8 µM
[12]
  TGI: 45.6 µM
[13]
  TGI: 40.9 µM
[14]
  TGI: 36.9 µM
[15]
  TGI: 21.7 µM
[16]
  TGI: 41.9 µM
[17]
  TGI: 33.4 µM
[19]
  TGI: 22.4 µM
[20]
  TGI: 98.5 µM
[21]
  TGI: > 58.1 µM
[22]
  TGI: 16.7 µM
[58]
  TGI: > 38.3 µM
[23]
  TGI: > 65.9 µM
[24]
  TGI: 20.3 µM
[25]
  TGI: 54.2 µM
[26]
  TGI: > 100 µM
[27]
  TGI: > 83 µM
[28]
  TGI: > 100 µM
[29]
  TGI: 37.4 µM
[30]
  TGI: > 100 µM
[31]
  TGI: 16.9 µM
[32]
  TGI: 3.17 µM
[33]
  TGI: > 53 µM
[34]
  TGI: 45.4 µM
[35]
  TGI: > 29.5 µM
[36]
  TGI: > 84.5 µM
[37]
  TGI: > 85 µM
[38]
  TGI: > 100 µM
[39]
  TGI: 11.9 µM
[40]
  TGI: 17.1 µM
[41]
  TGI: 41 µM
[42]
  TGI: 30.9 µM
[43]
  TGI: > 81.9 µM
[44]
  TGI: > 100 µM
[45]
  TGI: 60.3 µM
[46]
  TGI: > 38.2 µM
[47]
  TGI: 8.55 µM
[48]
  TGI: > 88.3 µM
[49]
  TGI: > 39.8 µM
[50]
  TGI: 28 µM
[51]
  TGI: > 80.6 µM
[52]
  TGI: 34.4 µM
[53]
  TGI: > 100 µM
[54]
  TGI: 32.1 µM
[55]
  TGI: > 62.2 µM
[56]
  TGI: 26.9 µM
[57]
  TGI: 76.5 µM
